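Cultured in 96-well plates, cells were exposed to test compound for 48 hours across five concentrations. TGI denotes the concentration required for complete inhibition of growth.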
Tests used:
Test in all cases: NCI anticancer screen, dose series, 48 h
786-0 renal = tested on: 786-0 renal
A549 NSCLC = tested on: A549 NSCLC
ACHN renal = tested on: ACHN renal
BT-549 breast = tested on: BT-549 breast
CAKI-1 renal = tested on: CAKI-1 renal
CCRF-CEM leukemia = tested on: CCRF-CEM leukemia
COLO 205 colon = tested on: COLO 205 colon
DU-145 prostate = tested on: DU-145 prostate
EKVX NSCLC = tested on: EKVX NSCLC
HCT-116 colon = tested on: HCT-116 colon
HCT-15 colon = tested on: HCT-15 colon
HOP-62 NSCLC = tested on: HOP-62 NSCLC
HS 578T breast = tested on: HS 578T breast
HT29 colon = tested on: HT29 colon
IGROV1 ovarian = tested on: IGROV1 ovarian
K-562 leukemia = tested on: K-562 leukemia
KM12 colon = tested on: KM12 colon
LOX IMVI melanoma = tested on: LOX IMVI melanoma
M14 melanoma = tested on: M14 melanoma
MALME-3M melanoma = tested on: MALME-3M melanoma
MCF7 breast = tested on: MCF7 breast
MDA-MB-231 breast = tested on: MDA-MB-231 breast
MDA-MB-435 = tested on: MDA-MB-435
MDA-N = tested on: MDA-N
MOLT-4 leukemia = tested on: MOLT-4 leukemia
NCI-H23 lung = tested on: NCI-H23 lung
NCI-H460 lung = tested on: NCI-H460 lung
NCI-H522 lung = tested on: NCI-H522 lung
NCI/ADR-RES ovarian = tested on: NCI/ADR-RES ovarian
OVCAR-3 ovarian = tested on: OVCAR-3 ovarian
OVCAR-4 ovarian = tested on: OVCAR-4 ovarian
OVCAR-5 ovarian = tested on: OVCAR-5 ovarian
OVCAR-8 ovarian = tested on: OVCAR-8 ovarian
PC-3 prostate = tested on: PC-3 prostate
RXF 393 renal = tested on: RXF 393 renal
SF-268 CNS = tested on: SF-268 CNS
SF-295 CNS = tested on: SF-295 CNS
SK-MEL-2 melanoma = tested on: SK-MEL-2 melanoma
SK-MEL-28 melanoma = tested on: SK-MEL-28 melanoma
SK-MEL-5 melanoma = tested on: SK-MEL-5 melanoma
SK-OV-3 ovarian = tested on: SK-OV-3 ovarian
SN12C renal = tested on: SN12C renal
SNB-19 CNS = tested on: SNB-19 CNS
SNB-75 CNS = tested on: SNB-75 CNS
SR leukemia = tested on: SR leukemia
SW-620 colon = tested on: SW-620 colon
T-47D breast = tested on: T-47D breast
TK-10 renal = tested on: TK-10 renal
U251 CNS = tested on: U251 CNS
UACC-257 melanoma = tested on: UACC-257 melanoma
UACC-62 melanoma = tested on: UACC-62 melanoma
UO-31 renal = tested on: UO-31 renal
A498 renal = tested on: A498 renal
HCC-2998 colon = tested on: HCC-2998 colon
HL-60(TB) leukemia = tested on: HL-60(TB) leukemia
NCI-H226 lung = tested on: NCI-H226 lung
RPMI-8226 leukemia = tested on: RPMI-8226 leukemia
SF-539 CNS = tested on: SF-539 CNS

In the case of `O=C1C=Cc2c1csc2Br`, the TGI (786-0 renal) is reported as > 100 µM, the TGI (A549 NSCLC) is reported as > 100 µM and the TGI (ACHN renal) is reported as 86.5 µM. For the same compound, the TGI (BT-549 breast) was > 100 µM, the TGI (CAKI-1 renal) was > 100 µM and the TGI (CCRF-CEM leukemia) was 45.8 µM. For the same compound, the TGI (COLO 205 colon) was > 100 µM, the TGI (DU-145 prostate) was > 100 µM and the TGI (EKVX NSCLC) was > 100 µM. For the same compound, the TGI (HCT-116 colon) was > 100 µM, the TGI (HCT-15 colon) was > 100 µM and the TGI (HOP-62 NSCLC) was > 100 µM. For the same compound, the TGI (HS 578T breast) was > 100 µM, the TGI (HT29 colon) was > 100 µM and the TGI (IGROV1 ovarian) was > 100 µM. For the same compound, the TGI (K-562 leukemia) was 97.7 µM, the TGI (KM12 colon) was > 100 µM and the TGI (LOX IMVI melanoma) was 60.2 µM. The TGI (M14 melanoma) was 47.2 µM, the TGI (MALME-3M melanoma) was > 100 µM and the TGI (MCF7 breast) was 95.9 µM. For the same compound, the TGI (MDA-MB-231 breast) was > 100 µM, the TGI (MDA-MB-435) was > 100 µM and the TGI (MDA-N) was > 100 µM. For the same compound, the TGI (MOLT-4 leukemia) was 54.7 µM, the TGI (NCI-H23 lung) was > 100 µM and the TGI (NCI-H460 lung) was > 100 µM. The TGI (NCI-H522 lung) was 38.4 µM, the TGI (NCI/ADR-RES ovarian) was > 100 µM and the TGI (OVCAR-3 ovarian) was > 100 µM. The TGI (OVCAR-4 ovarian) was > 100 µM, the TGI (OVCAR-5 ovarian) was > 100 µM and the TGI (OVCAR-8 ovarian) was > 100 µM. The TGI (PC-3 prostate) was > 100 µM, the TGI (RXF 393 renal) was > 100 µM and the TGI (SF-268 CNS) was > 100 µM. The TGI (SF-295 CNS) was > 100 µM, the TGI (SK-MEL-2 melanoma) was > 100 µM and the TGI (SK-MEL-28 melanoma) was > 100 µM. The TGI (SK-MEL-5 melanoma) was > 100 µM, the TGI (SK-OV-3 ovarian) was > 100 µM and the TGI (SN12C renal) was > 100 µM. For the same compound, the TGI (SNB-19 CNS) was > 100 µM, the TGI (SNB-75 CNS) was > 100 µM and the TGI (SR leukemia) was 22.7 µM. For the same compound, the TGI (SW-620 colon) was 48.8 µM, the TGI (T-47D breast) was > 100 µM and the TGI (TK-10 renal) was > 100 µM. The TGI (U251 CNS) was > 100 µM, the TGI (UACC-257 melanoma) was > 100 µM and the TGI (UACC-62 melanoma) was > 100 µM. The TGI (UO-31 renal) was 72.5 µM.
`CCn1c(SCC(=O)NNC(=S)Nc2ccc(Cl)cc2)nc2ccccc2c1=O` was tested, and the TGI (786-0 renal) was > 100 µM, the TGI (A498 renal) was 98.3 µM and the TGI (A549 NSCLC) was > 100 µM. For the same compound, the TGI (ACHN renal) was > 100 µM, the TGI (BT-549 breast) was > 100 µM and the TGI (CAKI-1 renal) was > 100 µM. The TGI (CCRF-CEM leukemia) was > 100 µM, the TGI (COLO 205 colon) was > 100 µM and the TGI (DU-145 prostate) was > 100 µM. For the same compound, the TGI (EKVX NSCLC) was > 100 µM, the TGI (HCC-2998 colon) was > 100 µM and the TGI (HCT-116 colon) was > 100 µM. The TGI (HCT-15 colon) was > 100 µM, the TGI (HL-60(TB) leukemia) was 84.9 µM and the TGI (HOP-62 NSCLC) was > 100 µM. The TGI (HS 578T breast) was > 100 µM, the TGI (IGROV1 ovarian) was > 100 µM and the TGI (K-562 leukemia) was > 100 µM. The TGI (KM12 colon) was > 100 µM, the TGI (LOX IMVI melanoma) was > 100 µM and the TGI (M14 melanoma) was > 100 µM. The TGI (MALME-3M melanoma) was > 100 µM, the TGI (MCF7 breast) was > 100 µM and the TGI (MDA-MB-231 breast) was > 100 µM. For the same compound, the TGI (MDA-MB-435) was > 100 µM, the TGI (MDA-N) was > 100 µM and the TGI (MOLT-4 leukemia) was > 100 µM. The TGI (NCI-H226 lung) was > 100 µM, the TGI (NCI-H23 lung) was > 100 µM and the TGI (NCI-H460 lung) was > 100 µM. For the same compound, the TGI (NCI-H522 lung) was > 100 µM, the TGI (NCI/ADR-RES ovarian) was > 100 µM and the TGI (OVCAR-3 ovarian) was > 100 µM. The TGI (OVCAR-4 ovarian) was > 100 µM, the TGI (OVCAR-5 ovarian) was > 100 µM and the TGI (OVCAR-8 ovarian) was > 100 µM. The TGI (PC-3 prostate) was > 100 µM, the TGI (RPMI-8226 leukemia) was 94.8 µM and the TGI (RXF 393 renal) was > 100 µM. The TGI (SF-268 CNS) was > 100 µM, the TGI (SF-295 CNS) was > 100 µM and the TGI (SF-539 CNS) was > 100 µM. The TGI (SK-MEL-2 melanoma) was > 100 µM, the TGI (SK-MEL-28 melanoma) was > 100 µM and the TGI (SK-MEL-5 melanoma) was > 100 µM. The TGI (SK-OV-3 ovarian) was > 100 µM, the TGI (SN12C renal) was > 100 µM and the TGI (SNB-19 CNS) was > 100 µM. The TGI (SNB-75 CNS) was > 100 µM, the TGI (SR leukemia) was > 100 µM and the TGI (SW-620 colon) was > 100 µM. For the same compound, the TGI (T-47D breast) was 83 µM, the TGI (TK-10 renal) was > 100 µM and the TGI (U251 CNS) was > 100 µM. The TGI (UACC-257 melanoma) was > 100 µM, the TGI (UACC-62 melanoma) was > 100 µM and the TGI (UO-31 renal) was > 100 µM.

Source: PubChem BioAssay (NCI)
